Experimental data reported in patent US7521478B2, “Total synthesis of myriaporones” (Pharma Mar, S.A.U., priority 2002, dated 2009).

Experiments:
Type in all cases: cell-based
HeLa = experiment: Inhibition of cell growth by colorimetric SRB assay, HELA; conditions: Homo sapiens, HELA, 48 hours exposure
Outline: (§1)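 Absorbance of solubilized bound SRB (490 nm) quantified cell growth and viability after cells were exposed to compound for 48 h. Seeding was 5×10^3 cells per well in RPMI 1640/10% FBS, with 18 h attachment beforehand. GI, TGI and LC were calculated from means of triplicate wells.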

DU-145 = experiment: Inhibition of cell growth by colorimetric SRB assay, DU-145; conditions: Homo sapiens, DU-145, 48 hours exposure
Outline: as §1

IGROV-ET = experiment: Inhibition of cell growth by colorimetric SRB assay, IGROV-ET; conditions: Homo sapiens, IGROV-ET, 48 hours exposure
Outline: as §1

LoVo-Dox = experiment: Inhibition of cell growth by colorimetric SRB assay, LOVO-DOX; conditions: Homo sapiens, LOVO-DOX, 48 hours exposure
Outline: as §1

LNCaP = experiment: Inhibition of cell growth by colorimetric SRB assay, LN-caP; conditions: Homo sapiens, LN-caP, 48 hours exposure
Outline: as §1

IGROV = experiment: Inhibition of cell growth by colorimetric SRB assay, IGROV; conditions: Homo sapiens, 48 hours exposure
Outline: as §1

A-549 = experiment: Inhibition of cell growth by colorimetric SRB assay, A-549; conditions: Homo sapiens, A549, A-549, 48 hours exposure
Outline: as §1

HT-29 = experiment: Inhibition of cell growth by colorimetric SRB assay, HT-29; conditions: Homo sapiens, HT-29, 48 hours exposure
Outline: as §1

SK-MEL-28 = experiment: Inhibition of cell growth by colorimetric SRB assay, MEL-28; conditions: Homo sapiens, SK-MEL-28, MEL-28, 48 hours exposure
Outline: as §1

LoVo = experiment: Inhibition of cell growth by colorimetric SRB assay, LOVO; conditions: Homo sapiens, LOVO, 48 hours exposure
Outline: as §1

PANC-1 = experiment: Inhibition of cell growth by colorimetric SRB assay, PANC-1; conditions: Homo sapiens, PANC-1, 48 hours exposure
Outline: as §1

SK-BR-3 = experiment: Inhibition of cell growth by colorimetric SRB assay, SK-BR-3; conditions: SK-BR-3, 48 hours exposure
Outline: as §1

HeLa-APL = experiment: Inhibition of cell growth by colorimetric SRB assay, HELA-APL; conditions: Homo sapiens, HELA-APL, 48 hours exposure
Outline: as §1

K-562 = experiment: Inhibition of cell growth by colorimetric SRB assay, K-562; conditions: Homo sapiens, K562, K-562, 48 hours exposure
Outline: as §1

[1] = cell killing, read-out: LC50 (the source's name)
[2] = total growth inhibition, read-out: TGI

`C/C=C\[C@H](C)[C@H]1O[C@@]1(C)[C@@H](O)[C@@H](COC(C)=O)C(=O)[C@H](CO)[C@@H](O)CC(=O)CC` [Compound 47] gave a GI50 (HeLa) of 71.7 nM, a CC50 (HeLa; [1]) of 13500 nM and an IC (total growth inhibition) (HeLa; [2]) of 0.434 µM. The GI50 (DU-145) was 81.5 nM, the CC50 (DU-145; [1]) was 24100 nM and the IC (total growth inhibition) (DU-145; [2]) was 0.531 µM. The GI50 (IGROV-ET) was 152 nM, the CC50 (IGROV-ET; [1]) was 24100 nM and the IC (total growth inhibition) (IGROV-ET; [2]) was 1.08 µM. For the same compound, the GI50 (LoVo-Dox) was 216 nM, the LC50 (concentration for 50% cell killing) (LoVo-Dox; cell killing, read-out: LC50) was 24100 nM and the IC (total growth inhibition) (LoVo-Dox; [2]) was 24.1 µM. For the same compound, the GI50 (LNCaP) was 81.3 nM, the CC50 (LNCaP; [1]) was 8880 nM and the IC (total growth inhibition) (LNCaP; [2]) was 0.536 µM. The GI50 (IGROV) was 63.9 nM, the CC50 (IGROV; [1]) was 24100 nM and the IC (total growth inhibition) (IGROV; [2]) was 0.528 µM. The GI50 (A-549) was 151 nM, the CC50 (A-549; [1]) was 23200 nM and the IC (total growth inhibition) (A-549; [2]) was 1.12 µM. It also gave a GI50 (HT-29) of 106 nM, a CC50 (HT-29; [1]) of 24100 nM and an IC (total growth inhibition) (HT-29; [2]) of 3.11 µM. For the same compound, the GI50 (SK-MEL-28) was 82 nM, the CC50 (SK-MEL-28; [1]) was 12900 nM and the IC (total growth inhibition) (SK-MEL-28; [2]) was 0.984 µM. The GI50 (LoVo) was 40.3 nM, the LC50 (LoVo; cell killing, read-out: LC50) was 17700 nM and the IC (total growth inhibition) (LoVo; [2]) was 0.374 µM. It also gave a GI50 (PANC-1) of 90.5 nM, a CC50 (PANC-1; [1]) of 19500 nM and an IC (total growth inhibition) (PANC-1; [2]) of 2.38 µM. For the same compound, the GI50 (SK-BR-3; Homo sapiens) was 23.1 nM, the CC50 (SK-BR-3; Homo sapiens, cell killing, read-out: LC50 (the source's name)) was 2300 nM and the TGI (SK-BR-3; total growth inhibition) was 1.18E−07 Molar. For the same compound, the CC50 (HeLa-APL; [1]) was 24100 nM, the GI50 (HeLa-APL; read-out: GI50) was 79.6 nM and the IC (total growth inhibition) (HeLa-APL; [2]) was 0.591 µM. For the same compound, the GI50 (K-562) was 294 nM, the CC50 (K-562; [1]) was 11800 nM and the IC (total growth inhibition) (K-562; [2]) was 0.999 µM.
